Measurements published in patent publication US5389627A, “Cephem compounds” (priority 1993, dated 1995).
Values after ≈ are worked out from the molar mass of the structure shown. Read-outs that look alike come from different tables or passages of the source.

Assays:
[1] = Pharmacokinetics (plasma half-life); assay type: in vivo; conditions: SD Rat, mean value, read-out: Half-Life (T1/2)
Description: In order to investigate the pharmacokinetics properties of the compounds according to the present invention, the plasma half-life was determined in accordance with the method described in Antimicrobial Agents and Chemotherapy, 26(2), p.

K.pneumoniae ATCC10031 = experiment: In vitro antibacterial activity, minimum inhibitory concentration; assay type: cell-based; conditions: Klebsiella pneumoniae
Text: (§1) As reference compounds, Cefotaxime (CTX), Ceftazidime (CAZ) and Cefpirome (CPR) were employed.

S.epidermidis ATCC12228 = experiment: as above; assay type: cell-based; conditions: Staphylococcus epidermidis
Text: as §1

S.Faecalis ATCC29212 = experiment: as above; assay type: cell-based; conditions: Enterococcus faecalis
Text: as §1

S.aureus Smith = experiment: as above; assay type: cell-based; conditions: Staphylococcus aureus, read-out: Minimum Inhibitory Concentration (MIC)
Text: as §1

K.oxytoca C4022 = experiment: as above; assay type: cell-based; conditions: Klebsiella oxytoca
Text: as §1

P.aeruginosa C2027 = experiment: as above; assay type: cell-based; conditions: Pseudomonas aeruginosa
Text: as §1

P.aeruginosa ATCC27853 = experiment: as above; assay type: cell-based; conditions: Pseudomonas aeruginosa
Text: as §1

E.coli ATCC10536 = experiment: as above; assay type: cell-based; conditions: Escherichia coli
Text: as §1

P.aeruginosa ATCC10145 = experiment: as above; assay type: cell-based; conditions: Pseudomonas aeruginosa
Text: as §1

E.coli ATCC25922 = experiment: as above; assay type: cell-based; conditions: Escherichia coli
Text: as §1

E.cloacae C4009 = experiment: as above; assay type: cell-based; conditions: Enterobacter cloacae
Text: as §1

MRSA C2208 = experiment: as above; assay type: cell-based; conditions: Staphylococcus aureus, read-out: Minimum Inhibitory Concentration (MIC)
Text: as §1

P.mirabilis ATCC25933 = experiment: as above; assay type: cell-based; conditions: Proteus mirabilis
Text: as §1

S.pyogenes C4003 = experiment: as above; assay type: cell-based; conditions: Streptococcus pyogenes
Text: as §1

S.marcescens C1052 = experiment: as above; assay type: cell-based; conditions: Serratia marcescens
Text: as §1

K.pneumoniae C1040 = experiment: as above; assay type: cell-based; conditions: Klebsiella pneumoniae
Text: as §1

E.cloacae C4008 = experiment: as above; assay type: cell-based; conditions: Enterobacter cloacae
Text: as §1

S.aureus ATCC29213 = experiment: as above; assay type: cell-based; conditions: Staphylococcus aureus
Text: as §1

S.pyogenes ATCC 8668 = experiment: as above; assay type: cell-based; conditions: Streptococcus pyogenes
Text: as §1

S.typhimurium C4045 = experiment: as above; assay type: cell-based; conditions: Salmonella enterica, read-out: Minimum Inhibitory Concentration (MIC)
Text: as §1

E.coli C4002 = experiment: as above; assay type: cell-based; conditions: Escherichia coli
Text: as §1

P.aeruginosa C4070 = experiment: as above; assay type: cell-based; conditions: Pseudomonas aeruginosa
Text: as §1

S.marcescens ATCC27117 = experiment: as above; assay type: cell-based; conditions: Serratia marcescens
Text: as §1

S.aureus C4036 = experiment: as above; assay type: cell-based; conditions: Staphylococcus aureus
Text: as §1

P.rettgeri ATCC9919 = experiment: as above; assay type: cell-based; conditions: Providencia rettgeri
Text: as §1

CC(C)(O/N=C(\C(=O)N[C@@H]1C(=O)N2C(C(=O)[O-])=C(C[n+]3ccccc3)CS[C@H]12)c1csc(N)n1)C(=O)O [CAZ, Ceftazidime, reference compound]
half-life ([1]; in vivo): 12.3 min
MIC (K.pneumoniae ATCC10031; ATCC10031, read-out: Minimum Inhibitory Concentration (MIC)): 0.05 µg/mL (≈ 0.0915 µM)
MIC (S.epidermidis ATCC12228; ATCC12228, read-out: Minimum Inhibitory Concentration (MIC)): 3.13 µg/mL (≈ 5.73 µM)
MIC (S.Faecalis ATCC29212): > 100 µg/mL
MIC (S.aureus Smith): 6.25 µg/mL (≈ 11.4 µM)
MIC (K.oxytoca C4022; C4022, read-out: Minimum Inhibitory Concentration (MIC)): 0.78 µg/mL (≈ 1.43 µM)
MIC (P.aeruginosa C2027; C2027, read-out: Minimum Inhibitory Concentration (MIC)): 0.78 µg/mL (≈ 1.43 µM)
MIC (P.aeruginosa ATCC27853; ATCC27853, read-out: Minimum Inhibitory Concentration (MIC)): 3.13 µg/mL (≈ 5.73 µM)
MIC (E.coli ATCC10536; ATCC10536, read-out: Minimum Inhibitory Concentration (MIC)): 0.05 µg/mL (≈ 0.0915 µM)
MIC (P.aeruginosa ATCC10145; ATCC10145, read-out: Minimum Inhibitory Concentration (MIC)): 1.56 µg/mL (≈ 2.85 µM)
MIC (E.coli ATCC25922; ATCC25922, read-out: Minimum Inhibitory Concentration (MIC)): 0.2 µg/mL (≈ 0.366 µM)
MIC (E.cloacae C4009; C4009, read-out: Minimum Inhibitory Concentration (MIC)): 0.05 µg/mL (≈ 0.0915 µM)
MIC (MRSA C2208; MRSA): > 100 µg/mL
MIC (P.mirabilis ATCC25933; ATCC25933, read-out: Minimum Inhibitory Concentration (MIC)): 0.05 µg/mL (≈ 0.0915 µM)
MIC (S.pyogenes C4003; C4003, read-out: Minimum Inhibitory Concentration (MIC)): 0.2 µg/mL (≈ 0.366 µM)
MIC (S.marcescens C1052; C1052, read-out: Minimum Inhibitory Concentration (MIC)): 0.2 µg/mL (≈ 0.366 µM)
MIC (K.pneumoniae C1040; C1040, read-out: Minimum Inhibitory Concentration (MIC)): 0.05 µg/mL (≈ 0.0915 µM)
MIC (E.cloacae C4008; C4008, read-out: Minimum Inhibitory Concentration (MIC)): 0.05 µg/mL (≈ 0.0915 µM)
MIC (S.aureus ATCC29213; ATCC29213, read-out: Minimum Inhibitory Concentration (MIC)): 6.25 µg/mL (≈ 11.4 µM)
MIC (S.pyogenes ATCC 8668; ATCC8668, read-out: Minimum Inhibitory Concentration (MIC)): 0.1 µg/mL (≈ 0.183 µM)
MIC (S.typhimurium C4045; TYPHIMURIUM): 0.2 µg/mL (≈ 0.366 µM)
MIC (E.coli C4002; C4002, read-out: Minimum Inhibitory Concentration (MIC)): 0.1 µg/mL (≈ 0.183 µM)
MIC (P.aeruginosa C4070; C4070, read-out: Minimum Inhibitory Concentration (MIC)): 1.56 µg/mL (≈ 2.85 µM)
MIC (S.marcescens ATCC27117; ATCC27117, read-out: Minimum Inhibitory Concentration (MIC)): 0.1 µg/mL (≈ 0.183 µM)
MIC (S.aureus C4036; C4036, read-out: Minimum Inhibitory Concentration (MIC)): 6.25 µg/mL (≈ 11.4 µM)
MIC (P.rettgeri ATCC9919; ATCC9919, read-out: Minimum Inhibitory Concentration (MIC)): 0.025 µg/mL (≈ 0.0457 µM)

CO/N=C(\C(=O)N[C@@H]1C(=O)N2C(C(=O)[O-])=C(C[n+]3cccc4c3CCC4)CS[C@H]12)c1csc(N)n1 [CPR, Cefpirome, reference compound]
half-life [1]: 19.5 min
MIC (K.pneumoniae ATCC10031; K.pneumoniae ATCC10031, read-out: Minimum Inhibitory Concentration (MIC)): 0.013 µg/mL (≈ 0.0253 µM)
MIC (S.epidermidis ATCC12228; S.epidermidis ATCC12228, read-out: Minimum Inhibitory Concentration (MIC)): 0.2 µg/mL (≈ 0.389 µM)
MIC (S.Faecalis ATCC29212): 50 µg/mL (≈ 97.2 µM)
MIC (S.aureus Smith; S.aureus Smith): 0.39 µg/mL (≈ 0.758 µM)
MIC (K.oxytoca C4022; K.oxytoca C4022, read-out: Minimum Inhibitory Concentration (MIC)): 1.56 µg/mL (≈ 3.03 µM)
MIC (P.aeruginosa C2027; P.aeruginosa C2027, read-out: Minimum Inhibitory Concentration (MIC)): 0.39 µg/mL (≈ 0.758 µM)
MIC (P.aeruginosa ATCC27853; P.aeruginosa ATCC27853, read-out: Minimum Inhibitory Concentration (MIC)): 3.13 µg/mL (≈ 6.08 µM)
MIC (E.coli ATCC10536; E.coli ATCC10536, read-out: Minimum Inhibitory Concentration (MIC)): 0.013 µg/mL (≈ 0.0253 µM)
MIC (P.aeruginosa ATCC10145; P.aeruginosa ATCC10145, read-out: Minimum Inhibitory Concentration (MIC)): 6.25 µg/mL (≈ 12.1 µM)
MIC (E.coli ATCC25922; E.coli ATCC25922, read-out: Minimum Inhibitory Concentration (MIC)): 0.05 µg/mL (≈ 0.0972 µM)
MIC (E.cloacae C4009; E.cloacae C4009, read-out: Minimum Inhibitory Concentration (MIC)): 0.013 µg/mL (≈ 0.0253 µM)
MIC (MRSA C2208; MRSA C2208): > 100 µg/mL
MIC (P.mirabilis ATCC25933; P.mirabilis ATCC25933, read-out: Minimum Inhibitory Concentration (MIC)): 0.05 µg/mL (≈ 0.0972 µM)
MIC (S.pyogenes C4003; S.pyogenes C4003, read-out: Minimum Inhibitory Concentration (MIC)): 0.007 µg/mL (≈ 0.0136 µM)
MIC (S.marcescens C1052; S.marcescens C1052, read-out: Minimum Inhibitory Concentration (MIC)): 0.05 µg/mL (≈ 0.0972 µM)
MIC (K.pneumoniae C1040; K.pneumoniae C1040, read-out: Minimum Inhibitory Concentration (MIC)): 0.025 µg/mL (≈ 0.0486 µM)
MIC (E.cloacae C4008; E.cloacae C4008, read-out: Minimum Inhibitory Concentration (MIC)): 0.013 µg/mL (≈ 0.0253 µM)
MIC (S.aureus ATCC29213; S.aureus ATCC29213, read-out: Minimum Inhibitory Concentration (MIC)): 0.78 µg/mL (≈ 1.52 µM)
MIC (S.pyogenes ATCC 8668; ATCC8668, S.pyogenes ATCC 8668, read-out: Minimum Inhibitory Concentration (MIC)): 0.007 µg/mL (≈ 0.0136 µM)
MIC (S.typhimurium C4045; S.typhimurium C4045): 0.025 µg/mL (≈ 0.0486 µM)
MIC (E.coli C4002; E.coli C4002, read-out: Minimum Inhibitory Concentration (MIC)): 0.05 µg/mL (≈ 0.0972 µM)
MIC (P.aeruginosa C4070; P.aeruginosa C4070, read-out: Minimum Inhibitory Concentration (MIC)): 6.25 µg/mL (≈ 12.1 µM)
MIC (S.marcescens ATCC27117; S.marcescens ATCC27117, read-out: Minimum Inhibitory Concentration (MIC)): 0.05 µg/mL (≈ 0.0972 µM)
MIC (S.aureus C4036; S.aureus C4036, read-out: Minimum Inhibitory Concentration (MIC)): 0.39 µg/mL (≈ 0.758 µM)
MIC (P.rettgeri ATCC9919; P.rettgeri ATCC9919, read-out: Minimum Inhibitory Concentration (MIC)): 0.013 µg/mL (≈ 0.0253 µM)
